Test results reported in patent US20260263550A1, “METHODS AND COMPOSITIONS FOR TREATING, PREVENTING, INHIBITING, AMELIORATING OR DELAYING THE ONSET OF OPHTHALMIC CONDITIONS” (Stealth BioTherapeutics Inc., priority 2021, published 2026).
Where “and” joins values, the source holds several entries; their conditions need not be identical. Equal values may be shown once.

Assays:
[1] = Uptake in the retina after 10-day SC dosing, LC-MS/MS; assay type: in vivo, cynomolgus monkey; details: male cynomolgus monkeys 1001-1003, SC 5 mg/kg/day for 10 days, left eye, approximately 24 hours after the last dose
Procedure: Administration of Compound of Formula IIa. The test agent (compound of formula IIa) was administered daily via subcutaneous injection into the scapular and mid-dorsal areas for 10 days. The first day of dosing was designated as Day 1. Dose formulations were allowed to warm up at ambient temperature for at least 30 minutes prior to dosing, as appropriate. The animals were temporarily restrained for dose administration and were not sedated. The volume for each dose was administered over 1 (preferred) or 2 (as necessary) separated injections within the designated area. If a designated injection site was not available for a given animal on any day, the next available test site in the rotation was used. The injection area was marked as frequently as required to allow appropriate visualization of administration sites. On the last injection occasion for each quadrant, the last site of injection was circled, and the circled site was collected for necropsy.
Tissue collection, preservation, and analysis. Eye tissue (retina) was collected approximately 24 hours after the last dose on Day 10. […]
Tissue samples were prepared and analyzed by methods similar to those described above in Example 3. In brief, concentrations of test article (compound of Formula IIa) in the retina (ng/g tissue) was determined by LC-MS/MS using Formula IIb as a standard.

[2] = test system: iPSC-derived RPE cells from AMD donors; assay: Microarray analysis of gene expression on in vitro Bruch's membrane model; assay type: cell-based, human; details: AMD-derived RPE on nitrite-modified ECM, 10, 100, 1000 nM, 24 hours
Procedure: General. iPSC-derived RPE were generated from AMD patients (2 atrophic; 1 exudative) and patients with no history of AMD (n=3). To test the therapeutic efficacy of elamipretide and compound of Formula IIa, cell viability was analyzed on nitrite-modified extracellular matrix (ECM), a typical modification of aged Bruch's membrane, for 24 hrs. DNA microarrays were used to elucidate gene expression in AMD-derived RPE cultured on nitrite-modified ECM.
Microarray analysis. iPSC-derived RPE cells from AMD donors (n=3; 2 atrophic with GA, 1 exudative) were treated with drug (elamipretide or compound of Formula IIa) as described below and cultured on an in vitro Bruch's membrane model for 24 hours.
• AMD donors only (n=3 individual donors) • Cells treated with elamipretide (also referred to as “309” in the figures) at 10 nM, 100 nM and 1000 nM • Cells treated with compound of Formula IIa (also referred to as “146c” in the figures) at 10 nM, 100 nM, 1000 nM
Microarray studies using Affymetrix GeneChip Human Clariom™ S Assay were performed as described in Gong et al. (2020).

[3] = Uptake in plasma and compartments of the eye in a rabbit model (subcutaneous or topical ocular dosing); assay type: in vivo, Dutch Belted Rabbits; details: in vivo
Procedure: 3 mg/mL elamipretide or compound of Formula IIa in saline was dosed subcutaneously at 1.5 mg/kg. A 3 mg/mL elamipretide or compound of Formula IIa formulation was prepared by dissolving 81 mg elamipretide in a total volume of 27 mL of sterile saline and mixing well. • (ii) Groups 2 & 4: Topical Ocular Formulation for administration of elamipretide or compound of Formula IIa
For each preparation (i.e., elamipretide or compound of Formula IIa, sodium chloride (105 mg) was dissolved in 16 mL of water for injection with mixing. With mixing, 82.8 mg of sodium phosphate monobasic, monohydrate was then added. With mixing, 0.400 mL of a 5 mg/mL benzalkonium chloride solution in water (to be prepared by diluting 0.100 mL of a 50% benzalkonium chloride solution in water to 10 mL with water for injection) was then added. Two hundred (200) mg of elamipretide or compound of Formula IIa was then added with mixing and the formulation pH was adjusted to 5.8 (+/−0.1) with 1 M sodium hydroxide in water solution. The final volume of the formulation was then be brought to 20 mL using water for injection. Each formulation (elamipretide or compound of Formula IIa) was used for topical ocular administration at a dose of 50 μL/eye OU.
A total of 48 male Dutch Belted Rabbits were used in the study. Each animal was approximately 2 kg.
For subcutaneous administration, rabbits were dosed via a single subcutaneous injection of 1.5 mg/kg and at the scruff of the neck between the shoulder blades using a syringe with an attached 27G×½ inch needle (or similar). The site of injection was checked to ensure no leakage of dose immediately following administration.
For topical administration, a calibrated Gilson positive displacement pipette was used to administer 50 μL of formulation onto the globe the eye while the lower eyelid was pulled away from the globe. Administration was twice daily (i.e., BID). Doses were administered to both eyes, every 8 to 12 hours for 11 total doses.
Terminal blood samples (approximately 6 mL) were collected from two animals/group/timepoint via the central ear artery at approximately 0.5, 1, 2, 4, 8, and 24 hours postdose. Blood samples were collected into tubes containing K2EDTA as the anticoagulant and inverted several times to ensure adequate mixing of blood and anticoagulant and placed on ice. Within 30 min of collection, samples were centrifuged to harvest plasma and stored at −80° C. until analyzed.
Following blood collection, designated animals were euthanized by barbiturate overdose. Following euthanasia, both eyes of each rabbit were harvested and dissected for collection of ocular tissue and fluid. Optic nerve and retina were collected from Group 1 and 3 animals, and aqueous humor, retina, conjunctiva, cornea, sclera, and optic nerve were collected from Group 2 and 4 animals. Following dissection, all fluids and tissues were placed in pre-tared tubes, weight collected, and then flash frozen on dry ice and placed in a freezer at −80° C. or lower until analyzed. Concentrations of test article in plasma in the ocular tissues (ng/g tissue) and fluids (ng/mL fluid) were determined utilizing a method previously developed by the CRO.

With Cc1cc(O)cc(C)c1C[C@H](NC(=O)[C@H](N)CCCNC(=N)N)C(=O)N[C@@H](CCCCN)c1nc(Cc2ccccc2)no1.Cl.Cl.Cl [Formula IIa, (R)-2-amino-N—((S)-1-(((S)-5-amino-1-(3-benzyl-1,2,4-oxadiazol-5-yl)pentyl)amino)-3-(4-hydroxy-2,6-dimethylphenyl)-1-oxopropan-2-yl)-5-guanidinopentanamide] the “Concentration in Retina at Day 11 (individual subjects)” value [1] was 382 ng/g and 336 ng/g and 126 ng/g, the “expression of complement regulatory genes including CFHR2” value ([2]; FIG. 8S) was “increase expression” and the “expression of complement component genes (C1R, C3, C4A) increased by nitration of ECM” value ([2]; FIGS. 8L-8P) was “reverse this trend”. The “expression of mitochondrial-related genes, such as CYP24A1 and GLS” value ([2]; FIGS. 8W-8Z) was “altered the expression”, the “accumulation in eye tissues (retina, conjunctiva, cornea, aqueous humor, optic nerve head) compared with elamipretide” value [3] was “higher concentration” and the “concentration in the eye tissue examined compared with elamipretide (conjunctiva, cornea, aqueous humor, optical nerve head)” value [3] was “higher”. For the same compound, the “concentration in plasma, elamipretide compared with compound of Formula IIa” value ([3]; 1.5 mg/kg) was “roughly equivalent”.
